Measured values as given in PubChem BioAssay (NCI).
Values joined by “and” are separate entries in the source; they are usually repeats but may differ in a detail not shown here. Equal values may be shown once.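 Results reflect a 48-hour exposure of cells in 96-well plates to compound at five concentrations. The concentration for 50% growth inhibition is given as GI50. Definition used: TGI = concentration required for complete inhibition of growth.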

Columns and labels:
Experiment in all cases: NCI-60 cell line screen, 48 h
COLO 205 colon = test system: COLO 205 colon
HOP-62 NSCLC = test system: HOP-62 NSCLC
KM12 colon = test system: KM12 colon
MOLT-4 leukemia = test system: MOLT-4 leukemia
NCI-H23 lung = test system: NCI-H23 lung
OVCAR-4 ovarian = test system: OVCAR-4 ovarian
SF-539 CNS = test system: SF-539 CNS
SK-MEL-5 melanoma = test system: SK-MEL-5 melanoma
SK-OV-3 ovarian = test system: SK-OV-3 ovarian
TK-10 renal = test system: TK-10 renal

SMILES	GI50 (COLO 205 colon)	TGI (COLO 205 colon)	GI50 (HOP-62 NSCLC)	TGI (HOP-62 NSCLC)	GI50 (KM12 colon)	TGI (KM12 colon)	GI50 (MOLT-4 leukemia)	TGI (MOLT-4 leukemia)	GI50 (NCI-H23 lung)	TGI (NCI-H23 lung)	GI50 (OVCAR-4 ovarian)	TGI (OVCAR-4 ovarian)	GI50 (SF-539 CNS)	TGI (SF-539 CNS)	GI50 (SK-MEL-5 melanoma)	TGI (SK-MEL-5 melanoma)	GI50 (SK-OV-3 ovarian)	TGI (SK-OV-3 ovarian)	GI50 (TK-10 renal)	TGI (TK-10 renal)
Nc1c(C(=O)Nc2ccccn2)sc2nc3c(cc12)C(O)CCC3 (configuration not stated)	2.51 µM	> 50 µM	2.9 µM	> 50 µM	1.95 µM	> 50 µM	2.08 µM	> 50 µM	3.05 µM	> 50 µM	> 50 µM	> 50 µM	1.47 µM	> 50 µM	1.47 µM	> 50 µM				
[N-]=[N+]=NCCCn1c2c(c3ccc([N+](=O)[O-])cc3c1=O)C(=O)c1cc3c(cc1-2)OCO3	0.585 µM	> 100 µM				5.01 µM	< 0.0374 µM		< 0.01 µM	< 0.01 µM	4.83 µM	> 100 µM	< 0.0171 µM	< 0.0363 µM	< 0.0317 µM	0.196 µM	0.7 µM	> 100 µM	2.26 µM	19.9 µM
Nc1ncnc2c1ncn2C1OC(COS(N)(=O)=O)C(O)C1O (configuration not stated)	0.00239 µM and 0.0219 µM	0.00508 µM and 0.0432 µM					0.0219 µM	0.109 µM		0.00558 µM and 0.0546 µM	0.00118 µM	0.00718 µM and 0.0357 µM			0.00177 µM and 0.0175 µM	0.00336 µM and 0.0321 µM		0.00784 µM and 0.0758 µM		
CCCCCCCCCC[C@@H](O)[C@@H]1CC[C@@H]([C@@H]2CC[C@@H]([C@@H](O)CCCCCCCCCC[C@H](O)CC3=CC(C)OC3=O)O2)O1 (some centres not stated)		> 27.5 µM	4.27 µM	15.4 µM	> 100 µM		2.93 µM					> 51.4 µM		9.39 µM and 13.3 µM		3.11 µM and 2.6 µM		21.9 µM	5.18 µM	9.07 µM and 26 µM
CC1=C(C(=O)NCc2ccccc2)C(c2ccc(Cl)c(Cl)c2)C(C(=O)NCc2ccccc2)=C(C)N1				> 100 µM		> 100 µM		> 100 µM		> 100 µM		> 100 µM		> 100 µM		> 100 µM				> 100 µM
COc1ccc(C(C)c2cc(OC)c(OC)c(OC)c2)cc1 (configuration not stated)	0.109 µM	0.325 µM	0.259 µM	> 50 µM	0.058 µM	> 50 µM	0.264 µM	> 50 µM	0.292 µM	> 50 µM	2.97 µM	> 50 µM			0.13 µM	12.8 µM	0.159 µM	> 50 µM	> 50 µM	> 50 µM
CCc1cccc(C(C)C)c1NC(=O)CCl						> 100 µM		> 100 µM		> 100 µM				> 100 µM				> 100 µM		> 100 µM
CCOC(=O)C(Cc1c[nH]c2cc(N(CCO)CCO)ccc12)(NC(C)=O)C(=O)OCC	274 µM	> 1000 µM	> 1000 µM	> 1000 µM	143 µM	463 µM			491 µM	> 1000 µM	> 1000 µM	> 1000 µM	42.9 µM and 286 µM	770 µM		> 1000 µM	480 µM	> 1000 µM	> 1000 µM	> 1000 µM
